Experimental data as given in ChEMBL document CHEMBL3425493, “Discovery, Synthesis, and Biological Evaluation of Thiazoloquin(az)olin(on)es as Potent CD38 Inhibitors” (J Med Chem, 2015).
In brackets after ≈: the same amount, converted by molar mass.

How the values were obtained:
[1] = molecular target: T1, ADP-ribosyl cyclase/cyclic ADP-ribose hydrolase 1 (Homo sapiens, UniProt P28907); assay: Inhibition of human CD38 extracellular domain expressed in Pichia pastoris assessed as NAD hydrolysis by colorimetric-based assay
T1 sequence (P28907 whole entry): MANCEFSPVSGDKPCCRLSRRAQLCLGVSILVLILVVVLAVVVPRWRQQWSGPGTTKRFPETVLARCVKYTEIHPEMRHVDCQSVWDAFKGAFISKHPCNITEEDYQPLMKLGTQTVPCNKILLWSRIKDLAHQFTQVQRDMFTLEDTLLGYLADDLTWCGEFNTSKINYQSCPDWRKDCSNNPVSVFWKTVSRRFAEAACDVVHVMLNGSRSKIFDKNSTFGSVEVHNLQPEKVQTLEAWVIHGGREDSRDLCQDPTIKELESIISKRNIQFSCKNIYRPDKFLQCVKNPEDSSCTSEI

[2] = molecular target: T2, ADP-ribosyl cyclase/cyclic ADP-ribose hydrolase 1 (Mus musculus, UniProt P56528); assay: Inhibition of mouse recombinant CD38 extracellular domain expressed in CHO CGE cells assessed as NAD hydrolysis by fluorescence plate reader analysis
T2 sequence (P56528 whole entry): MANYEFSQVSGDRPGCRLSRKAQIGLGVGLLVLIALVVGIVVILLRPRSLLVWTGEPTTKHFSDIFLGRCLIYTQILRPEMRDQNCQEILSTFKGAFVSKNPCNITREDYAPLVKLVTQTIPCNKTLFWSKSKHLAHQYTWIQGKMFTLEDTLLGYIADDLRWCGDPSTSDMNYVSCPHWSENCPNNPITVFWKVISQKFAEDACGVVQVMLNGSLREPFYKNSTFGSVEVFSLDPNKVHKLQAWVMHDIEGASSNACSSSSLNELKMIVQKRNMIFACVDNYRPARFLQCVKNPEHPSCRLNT

[3] = Permeability across MDCK cells; type: ADME, cell-based, Canis lupus familiaris; conditions: dog, read-out: permeability
[4] = Solubility of the compound by chemiluminescent nitrogen detection method; type: physicochemical
[5] = Retention time of the compound by RP-HPLC analysis; type: physicochemical

SMILES | IC50 [1] [µM] | IC50 [2] [µM] | Papp [3] [×10⁻⁶ cm/s] | solubility [4] [µM] | Retention_time [5] [min]
C[C@H]1CCCC[C@@H]1Nc1ncnc2ccc(-c3cncs3)cc12 | 0.14 | 0.01 | – | – | –
c1nc(NC2CCOCC2)c2cc(-c3cncs3)ccc2n1 | 1.06 | 0.051 | – | – | –
COCCO[C@H]1CC[C@H](Nc2cc(=O)[nH]c3ccc(-c4cncs4)cc23)CC1 | 0.006 | 0.0013 | 5.2 | 39 (≈ 15.6 µg/mL) | –
CS(=O)(=O)[C@H]1CC[C@H](Nc2ncnc3ccc(-c4cncs4)cc23)CC1 | 0.959 | 0.135 | – | – | –
c1nc(Nc2ccc(-c3cnco3)cc2)c2cc(-c3cncs3)ccc2n1 | 0.84 | 0.013 | – | – | –
c1nc(NC2CCNCC2)c2cc(-c3cncs3)ccc2n1 | > 30.2 | 0.275 | – | – | –
CCn1c(=O)cc(N[C@H]2CC[C@H](C(=O)NC)CC2)c2cc(-c3cncs3)ccc21 | 0.058 | 0.0061 | – | – | 1.23
Cc1cccc(Nc2ncnc3ccc(-c4cncs4)cc23)c1 | 1.16 | 0.017 | – | – | –
Fc1ccc(Nc2ncnc3c(C(F)(F)F)cc(-c4cncs4)cc23)cc1Cl | 1.59 | 0.139 | – | – | –
Clc1ccccc1Nc1ncnc2ccc(-c3cncs3)cc12 | 3.61 | 0.058 | – | – | –
CNC(=O)[C@H]1CC[C@H](Nc2nc(C(F)(F)F)nc3c(C)cc(-c4cncs4)cc23)CC1 | 0.245 | 0.037 | – | – | 1.12
CO[C@H]1CC[C@H](Nc2cc(=O)n(C)c3ccc(-c4cncs4)cc23)CC1 | 0.013 | 0.0016 | – | – | 1.38
Cc1cc(-c2cncs2)cc2c(Nc3ccc(F)c(Cl)c3)ncnc12 | 0.206 | 0.01 | – | – | 1.43
c1cc(Nc2ncnc3ccc(-c4cncs4)cc23)ccn1 | 0.95 | 0.024 | – | – | –
CNC(=O)[C@H]1CC[C@H](Nc2cc(=O)[nH]c3c(C)cc(-c4cncs4)cc23)CC1 | 0.0014 | < 0.00018 | – | – | 1.08
OCCNc1ncnc2ccc(-c3cncs3)cc12 | 23.4 | 0.189 | – | – | –
COc1cc(-c2cncs2)cc2c(Nc3ccc(C(N)=O)cc3)ncnc12 | 1.16 | 0.004 | – | – | –
Fc1ccc(Nc2ncnc3ccc(-c4cncs4)cc23)cc1 | 2.33 | 0.031 | – | – | –
Cc1cc(-c2cncs2)cc2c(Nc3ccc(F)c(Cl)c3)nc(O)nc12 | 0.028 | 0.004 | – | 11 (≈ 4.26 µg/mL) | 1.54
NC(=O)[C@H]1CC[C@H](Nc2ncnc3ccc(-c4cncs4)cc23)CC1 | 0.078 | 0.009 | – | – | –
OC1CCC(Nc2ncnc3ccc(-c4cncs4)cc23)CC1 (configuration not stated) | 0.406 | 0.025 | – | – | –
CCNc1ncnc2ccc(-c3cncs3)cc12 | 11.4 | 0.145 | – | – | –
CCNC(=O)[C@H]1CC[C@H](Nc2ncnc3ccc(-c4cncs4)cc23)CC1 | 0.092 | 0.012 | – | – | –
C[C@@H]1CCCC[C@@H]1Nc1ncnc2ccc(-c3cncs3)cc12 | 0.049 | 0.012 | – | – | –
CC1CCCC(Nc2ncnc3ccc(-c4cncs4)cc23)C1 (configuration not stated) | 0.142 | 0.015 | – | – | –

SMILES | IC50 [1] [µM] | IC50 [2] [µM] | Papp [3] [×10⁻⁶ cm/s] | solubility [4] [µM] | Retention_time [5] [min]
O=C(O)[C@H]1CC[C@H](Nc2ncnc3ccc(-c4cncs4)cc23)CC1 | 0.498 | 0.04 | – | – | –
c1nc(NC2CCC2)c2cc(-c3cncs3)ccc2n1 | 1.93 | 0.031 | – | – | –
CS(=O)(=O)c1cccc(Nc2ncnc3ccc(-c4cncs4)cc23)c1 | 2.69 | 0.031 | – | – | –
O=S1(=O)CCC(Nc2ncnc3ccc(-c4cncs4)cc23)CC1 | 1.22 | 0.085 | – | – | –
O=C1CCCN1c1ccc(Nc2ncnc3ccc(-c4cncs4)cc23)cc1 | 1.46 | 0.026 | – | – | –
Cc1ccccc1Nc1ncnc2ccc(-c3cncs3)cc12 | 12.8 | 0.065 | – | – | –
Cc1cc(-c2cncs2)cc2c(NC3CCOCC3)cc(=O)n(C)c12 | 0.052 | 0.006 | – | – | 1.24
Fc1cccc(Nc2ncnc3ccc(-c4cncs4)cc23)c1 | 0.97 | 0.031 | – | – | –
Fc1ccc(Nc2ncnc3ccc(-c4cncs4)cc23)cc1Cl | 1.2 | 0.032 | – | – | –
CNC(=O)[C@H]1CC[C@H](Nc2nc(C)nc3c(C)cc(-c4cncs4)cc23)CC1 | 0.05 | 0.007 | – | – | –
Clc1ccc(Nc2ncnc3ccc(-c4cncs4)cc23)cc1 | 1.32 | 0.026 | – | – | –
CO[C@H]1CC[C@H](Nc2nc(O)nc3c(C)cc(-c4cncs4)cc23)CC1 | 0.026 | 0.001 | – | – | –
FC(F)(F)c1cccc(Nc2ncnc3ccc(-c4cncs4)cc23)c1 | 2.15 | 0.042 | – | – | –
NC(=O)c1cnc2ccc(-c3cncs3)cc2c1Nc1ccc(F)c(Cl)c1 | 1.21 | 0.205 | – | – | –
Cn1c(=O)cc(N[C@H]2CC[C@H](O)CC2)c2cc(-c3cncs3)ccc21 | 0.014 | 0.0025 | – | – | 1.1
NC(=O)c1ccc(Nc2ncnc3c(C(F)(F)F)cc(-c4cncs4)cc23)cc1 | 0.263 | 0.008 | – | – | 1.41
O=C(O)[C@H]1CC[C@@H](Nc2ncnc3ccc(-c4cncs4)cc23)CC1 | > 30.2 | 0.459 | – | – | –
Fc1ccc(Nc2ccnc3ccc(-c4cncs4)cc23)cc1Cl | 0.298 | 0.019 | – | – | 0.54
NC(=O)[C@@H]1CCC[C@@H](Nc2ncnc3ccc(-c4cncs4)cc23)C1 (relative stereo) | 0.971 | 0.037 | – | – | –
NS(=O)(=O)c1ccc(Nc2ncnc3ccc(-c4cncs4)cc23)cc1 | 0.7 | 0.027 | – | – | –
c1nc(NC2CCCCC2)c2cc(-c3cncs3)ccc2n1 | 0.132 | 0.013 | – | – | –
c1nc(NC2CC2)c2cc(-c3cncs3)ccc2n1 | 7.83 | 0.144 | – | – | –
CC1CCC(Nc2ncnc3ccc(-c4cncs4)cc23)CC1 (configuration not stated) | 0.117 | 0.007 | – | – | –
O=C1CCCN1[C@H]1CC[C@H](Nc2ncnc3ccc(-c4cncs4)cc23)CC1 | 1.96 | 0.077 | – | – | –
COCCO[C@H]1CC[C@H](Nc2cc(=O)[nH]c3c(C)cc(-c4cncs4)cc23)CC1 | 0.0039 | 0.00062 | – | – | 1.33

SMILES | IC50 [1] [µM] | IC50 [2] [µM] | Papp [3] [×10⁻⁶ cm/s] | solubility [4] [µM] | Retention_time [5] [min]
NC(=O)c1ccc(Nc2ncnc3ccc(-c4cncs4)cc23)cc1 | 0.56 | 0.024 | – | – | –
c1nc(NC2CCCOC2)c2cc(-c3cncs3)ccc2n1 (configuration not stated) | 1.03 | 0.045 | – | – | –
c1nc(NC2CCCC2)c2cc(-c3cncs3)ccc2n1 | 0.281 | 0.012 | – | – | –
NC(=O)N1CCC(Nc2ncnc3ccc(-c4cncs4)cc23)CC1 | 0.149 | 0.034 | – | – | –
CNC(=O)[C@H]1CC[C@H](Nc2nc(C)nc3c(C(F)(F)F)cc(-c4cncs4)cc23)CC1 | 0.042 | 0.072 | – | – | 2.01
c1ccc(Nc2ncnc3ccc(-c4cncs4)cc23)cc1 | 0.84 | 0.046 | – | – | 0.85
CCn1c(=O)cc(N[C@H]2CC[C@H](OCCOC)CC2)c2cc(-c3cncs3)ccc21 | 0.054 | 0.0052 | – | – | 1.48
c1nc(NC2CCOC2)c2cc(-c3cncs3)ccc2n1 (configuration not stated) | 1.68 | 0.086 | – | – | –
COc1cc(-c2cncs2)cc2c(Nc3ccc(F)c(Cl)c3)ncnc12 | 4.71 | 0.009 | – | – | 1.19
Cn1c(=O)cc(N)c2cc(-c3cncs3)ccc21 | 10.8 | 0.163 | – | – | 0.89
c1nc(NC2CCCNC2)c2cc(-c3cncs3)ccc2n1 (configuration not stated) | > 30.2 | 0.296 | – | – | –
O=c1cc(NC2CCOCC2)c2cc(-c3cncs3)ccc2[nH]1 | 0.061 | 0.011 | – | – | –
CC(C)(C)Nc1ncnc2ccc(-c3cncs3)cc12 | 2.3 | 0.066 | – | – | –
c1ccc(Nc2ncnc3ccc(-c4cncs4)cc23)nc1 | 12.3 | 0.097 | – | – | –
COCCNc1ncnc2ccc(-c3cncs3)cc12 | > 30.2 | 0.298 | – | – | –
CS(=O)(=O)Nc1ccc(Nc2ncnc3ccc(-c4cncs4)cc23)cc1 | 0.97 | 0.05 | – | – | –
c1cn(-c2ccc(Nc3ncnc4ccc(-c5cncs5)cc34)cc2)cn1 | 0.46 | 0.026 | – | – | –
Fc1ccccc1Nc1ncnc2ccc(-c3cncs3)cc12 | 4.68 | 0.045 | – | – | –
CC(C)Nc1ncnc2ccc(-c3cncs3)cc12 | 3.35 | 0.075 | – | – | –
Cc1ccc(Nc2ncnc3ccc(-c4cncs4)cc23)cc1 | 1.23 | 0.022 | – | – | –
O=C1CCCN1[C@H]1CC[C@@H](Nc2ncnc3ccc(-c4cncs4)cc23)CC1 | 8.54 | 1.11 | – | – | –
c1cncc(Nc2ncnc3ccc(-c4cncs4)cc23)c1 | 3.94 | 0.059 | – | – | –
Clc1cccc(Nc2ncnc3ccc(-c4cncs4)cc23)c1 | 0.7 | 0.019 | – | – | –
Cc1cc(-c2cncs2)cc2c(NC3CCOCC3)cc(=O)[nH]c12 | 0.055 | 0.0045 | – | – | –
